Holding throughout (settings): incubation time: 72 h
Experiment [1] deals with CAL-51. Put plainly: normalised viability (% of control), CellTiter-Blue; higher = more viable cells (about 100 = DMSO control). The protocol: (§1)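 DSRT, CellTiter-Blue viability, 72 h incubation. Signal is normalised to DMSO and benzethonium chloride controls. Value is the normalised response at dose 8.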
A general note: The colour change of resazurin is a common sign of viable cells or microbes.

Experiment [2] has as its system HDQ-P1. The experiment is described as above. Here is the method:
as §1

For experiment [3], the system named is CAL-148. Described as above. The protocol: as §1
Experiment [4] relates to MDA-MB-453. The description is as above. The protocol:
as §1

Experiment [5] deals with CAL-85-1. The description is as above. The protocol:
as §1

Experiment [6] relates to DU-4475. Described as above. The protocol: as §1
In experiment [7] the test system is CAL-51. Description: normalised viability (% of control), CellTiter-Blue; higher = more viable cells (100 = DMSO, 0 = benzethonium chloride kill control). Here is the method: (§2)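 DSRT, CellTiter-Blue viability, 72 h incubation. Signal is normalised to DMSO and benzethonium chloride controls. Value is the normalised response at dose 1.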
The test system of a further experiment is MFM-223. The experiment is described as above. The protocol:
as §2

In another experiment the test system is BT-549. The experiment is described as above. The protocol:
as §2

In a further experiment the test system is MDA-MB-468. The experiment is described as above. The protocol:
as §2

The subject of a further experiment is HCC1143. The experiment is described as above. Here is the method: as §2
In experiment [8] the test system is HDQ-P1. The description is as above. Here is the method:
as §2

In a further experiment the test system is BT-474. Described as above. The protocol: as §2
The test system of experiment [9] is CAL-148. The experiment is described as above. The protocol:
as §2

The subject of another experiment is MDA-MB-231. The experiment is described as above. The protocol: as §2
The next experiment concerns HCC1937. The experiment is described as above. Here is the method: as §2
The subject of experiment [10] is MDA-MB-453. Described as above. Here is the method:
as §2

Another experiment has as its system SK-BR-3. Described as above. Here is the method:
as §2

Another experiment relates to Hs578T. Described as above. The protocol: as §2
Experiment [11] concerns CAL-85-1. Described as above. The protocol: as §2
Experiment [12] has as its system DU-4475. The description is as above. The protocol: as §2
For the next experiment, the system named is HCC1599. Described as above. Here is the method: as §2
For the next experiment, the system named is MDA-MB-436. The description is as above. Here is the method: as §2
The next experiment concerns CAL-120. The description is as above. The protocol:
as §2

Regarding `Cn1cc(C2=C(c3cn(C4CCN(Cc5ccccn5)CC4)c4ccccc34)C(=O)NC2=O)c2ccccc21` [Enzastaurin] (3000 nM), the normalised viability was determined as 88.6% in the experiment on CAL-51 [1]; 89.8% in the experiment with HDQ-P1 [2]; 69% in the experiment with CAL-148 [3]; 53.6% with MDA-MB-453 [4]; 85% with CAL-85-1 [5]; 87.3% in the experiment on DU-4475 [6].
In the case of `CCNC(=O)c1noc(-c2cc(C(C)C)c(O)cc2O)c1-c1ccc(CN2CCOCC2)cc1` [NVP-AUY922] (300 nM), the normalised viability in the experiment with CAL-51 [1] stood at 8.64%; in the experiment on HDQ-P1 [2], 30.4%; in the experiment with CAL-148 [3], 16.3%; in the experiment with MDA-MB-453 [4], 8.88%; in the experiment on CAL-85-1 [5], 24.6%; with DU-4475 [6], 0.62%.
For `CN(Cc1cnc2nc(N)nc(N)c2n1)c1ccc(C(=O)N[C@@H](CCC(=O)O)C(=O)O)cc1` [Methotrexate] (1 nM), the normalised viability is 106% in the experiment with CAL-51 [7]; 99.9% in the experiment with MFM-223; 92.2% in the experiment with BT-549; 93% with MDA-MB-468; 95.6% in the experiment with HCC1143; 114% in the experiment on HDQ-P1 [8]. The normalised viability with BT-474 came to 101%; in the experiment with CAL-148 [9] it was 110%; in the experiment on MDA-MB-231 it was 93.5%; with HCC1937, 84.6%; in the experiment on MDA-MB-453 [10], 101%; in the experiment on SK-BR-3 it was 88.7%. For the same molecule, the normalised viability in the experiment on Hs578T turned out to be 130%; in the experiment with CAL-85-1 [11] it was 95.9%; in the experiment on DU-4475 [12], 114%; with HCC1599, 93.6%; in the experiment on MDA-MB-436, 109%; in the experiment on CAL-120, 90.5%.
Turning to `CN(Cc1cnc2nc(N)nc(N)c2n1)c1ccc(C(=O)N[C@@H](CCC(=O)O)C(=O)O)cc1` [Methotrexate] (3000 nM), the normalised viability is 39.6% in the experiment with CAL-51 [1]; 82.7% in the experiment with HDQ-P1 [2]; 56.3% with CAL-148 [3]; 91.4% with MDA-MB-453 [4]; 57.7% in the experiment with CAL-85-1 [5]; 101% in the experiment with DU-4475 [6].
Take `Cc1cc(Nc2nc(N[C@@H](C)c3ncc(F)cn3)ncc2Cl)[nH]n1` [AZD1480] (300 nM): the normalised viability in the experiment with CAL-51 [1] turned out to be 98.8%; with HDQ-P1 [2], 122%; in the experiment on CAL-148 [3], 106%; in the experiment on MDA-MB-453 [4], 94.2%; in the experiment with CAL-85-1 [5] it was 106%; in the experiment with DU-4475 [6], 89.3%.
On to `CO[C@@]12[C@H](COC(N)=O)C3=C(C(=O)C(C)=C(N)C3=O)N1C[C@@H]1N[C@@H]12` [Mitomycin C] (3000 nM), for which the normalised viability in the experiment on CAL-51 [1] is 102%; with HDQ-P1 [2] it was 85.2%; in the experiment on CAL-148 [3] it was 48.5%; in the experiment on MDA-MB-453 [4] it was 58.8%; in the experiment on CAL-85-1 [5], 71.6%; in the experiment with DU-4475 [6] it was 91.5%.
With `COc1ccc(S(=O)(=O)Nc2cccnc2Nc2ccc(O)cc2)cc1` [ABT-751] (3000 nM), the normalised viability in the experiment on CAL-51 [1] was determined as 19%; with HDQ-P1 [2] it was 37.8%; in the experiment with CAL-148 [3], 15%; with MDA-MB-453 [4] it was 27.7%; in the experiment on CAL-85-1 [5], 26.8%; in the experiment on DU-4475 [6], 17.4%.
As for `CC(=O)[C@]1(O)Cc2c(O)c3c(c(O)c2[C@@H](O[C@H]2C[C@H](N)[C@H](O)[C@H](C)O2)C1)C(=O)c1ccccc1C3=O` [Idarubicin] (300 nM), the normalised viability was 20.9% in the experiment on CAL-51 [1]; 48.7% with HDQ-P1 [2]; 7.71% in the experiment with CAL-148 [3]; 68.7% with MDA-MB-453 [4]; 47.1% in the experiment on CAL-85-1 [5]; 7.47% in the experiment with DU-4475 [6].
As to `C=CCN(/C=C1/C(=O)O[C@H](COC)[C@@]2(C)C1=C(O)C(=O)C1=C2[C@H](OC(C)=O)C[C@]2(C)C(=O)CC[C@@H]12)CC=C` [PX-866] (3000 nM), the normalised viability is 107% in the experiment on CAL-51 [1]; 70.2% with HDQ-P1 [2]; 108% in the experiment with CAL-148 [3]; 114% in the experiment on MDA-MB-453 [4]; 102% in the experiment on CAL-85-1 [5]; 95.4% in the experiment on DU-4475 [6].
Consider `CC[C@H](CO)Nc1nc(NCc2ccccc2)c2ncn(C(C)C)c2n1` [Roscovitine] (1 nM), for which the normalised viability is 101% in the experiment with CAL-51 [7]; 96.5% in the experiment on MFM-223; 105% with BT-549; 93.7% in the experiment with MDA-MB-468; 95.5% in the experiment on HCC1143; 83.1% in the experiment on HDQ-P1 [8]. Also, the normalised viability in the experiment with BT-474 amounted to 91%; in the experiment on CAL-148 [9] it was 87.1%; with MDA-MB-231, 110%; with HCC1937 it was 81.3%; in the experiment on MDA-MB-453 [10], 104%; in the experiment with SK-BR-3 it was 92.9%. The normalised viability in the experiment on Hs578T worked out at 96.3%; in the experiment on CAL-85-1 [11] it was 82.8%; in the experiment with DU-4475 [12] it was 103%; with HCC1599, 101%; with MDA-MB-436, 114%; in the experiment with CAL-120, 83.7%.
Consider `C/C(=C\c1csc(C)n1)[C@@H]1C[C@@H]2O[C@]2(C)CCC[C@H](C)[C@H](O)[C@@H](C)C(=O)C(C)(C)[C@@H](O)CC(=O)N1` [Ixabepilone] (300 nM), for which the normalised viability in the experiment on CAL-51 [1] turned out to be 117%; in the experiment with HDQ-P1 [2] it was 81.6%; in the experiment on CAL-148 [3] it was 87.3%; in the experiment on MDA-MB-453 [4], 89.8%; in the experiment on CAL-85-1 [5] it was 76.5%; in the experiment on DU-4475 [6], 92.9%.
Consider `CC(C)(C)NC(=O)[C@H]1CC[C@H]2[C@@H]3CC[C@H]4NC(=O)C=C[C@]4(C)[C@H]3CC[C@]12C` [Finasteride] (3000 nM), for which the normalised viability came to 104% in the experiment with CAL-51 [1]; 127% in the experiment on HDQ-P1 [2]; 96.4% in the experiment on CAL-148 [3]; 114% in the experiment with MDA-MB-453 [4]; 92.2% in the experiment on CAL-85-1 [5]; 97% in the experiment with DU-4475 [6].
As for `CCNC(=O)CCC/C=C\C[C@@H]1[C@@H](/C=C/[C@@H](O)CCc2ccccc2)[C@H](O)C[C@@H]1O` [Bimatoprost] (1650 nM), the normalised viability in the experiment on CAL-51 [1] was 111%; with HDQ-P1 [2] it was 97.4%; in the experiment on CAL-148 [3], 91.1%; with MDA-MB-453 [4], 92.4%; in the experiment on CAL-85-1 [5] it was 102%; with DU-4475 [6] it was 120%.
Consider `CC(C)C[C@H](NC(=O)[C@@H](COC(C)(C)C)NC(=O)[C@H](Cc1ccc(O)cc1)NC(=O)[C@H](CO)NC(=O)[C@H](Cc1c[nH]c2ccccc12)NC(=O)[C@H](Cc1cnc[nH]1)NC(=O)[C@@H]1CCC(=O)N1)C(=O)N[C@@H](CCCNC(=N)N)C(=O)N1CCC[C@H]1C(=O)NNC(N)=O` [Goserelin] (3000 nM), for which the normalised viability is 108% in the experiment on CAL-51 [1]; 106% with HDQ-P1 [2]; 99.8% in the experiment with CAL-148 [3]; 122% in the experiment on MDA-MB-453 [4]; 103% with CAL-85-1 [5]; 92.5% in the experiment on DU-4475 [6].

Values taken from the supplement of paper PMC4862054.
